# Where two headings read alike, the source gives them in different places.
# Columns and labels:
# hTRPV3 = hTRPV3 (Homo sapiens (Human), UniProt Q8NET8); test: Whole-cell patch clamp, hTRPV3 Phase 1 / Phase 2 currents; type: cell-based
# Outline: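 Currents are activated by 20 μM 2-APB or by perfusate at 28 °C or warmer, in Ringer's solution, and quantified at ±80 mV.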
# [1] = Aqueous solubility assay in Normal Ringer Solution; conditions: Normal Ringer Solution; for solubility at 40 min: saline or isotonic, kinetic from dmso stock; for Solubility Ringer (nM): room temperature
# Protocol: Following vortex and incubation for a sufficient time (e.g. 40 minutes at room temperature), solutions were filtered, quenched with acetonitrile, and analyzed by Liquid Chromotography. Solubility Limits were determined by comparison to a standard curve.
# [2] = Metabolic Stability assay, rat liver microsomes; type: in vitro ADME
# Protocol: Metabolic Stability assay: The metabolic stability was determined by adding compound dissolved in DMSO to human or rat, liver microsomes. Briefly, assays were run with a starting concentration of 1 μM test article. The reaction was started by addition of NADPH regeneration components at 37° C. at which time an aliquot was immediately quenched in ice-cold acetonitrile/MeOH/H2O solution. Reaction mixture was incubated at 37° C. on a shaker, and additional aliquots were taken at 7, 15, 30 and 60 minutes. Following quench and centrifugation, samples were analyzed on HPLC/MS/MS.
# [3] = Phase 1 current, inward, whole-cell patch clamp, read-out: hTRPV3 Patch P1 Inwd
# [4] = Phase 1 current, read-out: hTRPV3 (nM) (Phase 1)
# [5] = Phase 2 current, inward, whole-cell patch clamp, read-out: hTRPV3 Patch P2 Inwd
# [6] = Phase 2 current, read-out: hTRPV3 (nM) (Phase 2)
# [7] = Phase 1 current, human TRPV3, read-out: hTRPV3 (nM) Phase 1
# hTRPV3, sequence (Q8NET8 whole entry): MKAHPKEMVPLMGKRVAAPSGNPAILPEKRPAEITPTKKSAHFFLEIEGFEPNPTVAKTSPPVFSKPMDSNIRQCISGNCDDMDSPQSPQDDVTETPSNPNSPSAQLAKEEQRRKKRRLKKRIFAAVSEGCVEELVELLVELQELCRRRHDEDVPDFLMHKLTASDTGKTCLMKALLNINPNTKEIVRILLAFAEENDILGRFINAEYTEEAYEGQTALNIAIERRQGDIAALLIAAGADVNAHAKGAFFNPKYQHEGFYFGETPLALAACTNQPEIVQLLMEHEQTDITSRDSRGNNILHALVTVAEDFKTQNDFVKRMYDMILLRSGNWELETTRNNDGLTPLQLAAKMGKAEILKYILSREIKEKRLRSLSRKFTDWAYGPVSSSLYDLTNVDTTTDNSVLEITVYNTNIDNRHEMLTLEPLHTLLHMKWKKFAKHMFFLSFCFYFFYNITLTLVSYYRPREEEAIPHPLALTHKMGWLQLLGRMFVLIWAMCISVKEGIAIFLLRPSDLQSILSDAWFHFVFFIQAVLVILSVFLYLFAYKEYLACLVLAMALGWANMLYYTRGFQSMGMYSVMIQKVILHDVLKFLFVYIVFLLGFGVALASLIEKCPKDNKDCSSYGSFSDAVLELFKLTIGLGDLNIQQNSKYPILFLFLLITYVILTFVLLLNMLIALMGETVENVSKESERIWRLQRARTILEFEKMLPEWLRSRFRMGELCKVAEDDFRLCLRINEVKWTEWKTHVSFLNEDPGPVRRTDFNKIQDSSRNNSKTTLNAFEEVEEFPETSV
SMILES,IC50 (hTRPV3; [3]) [nM],IC50 (hTRPV3; [4]) [nM],solubility at 40 min [1] [µM],half-life at 1 μM ([2]; read-out: LM T1/2 (min) (rat)),IC50 (hTRPV3; [5]) [nM],IC50 (hTRPV3; [6]) [nM],IC50 (hTRPV3; [7]) [nM],half-life at 1 μM ([2]; read-out: LM T1/2 (min) rat) [min],Solubility Ringer (nM) [1]
CC(C)c1ccccc1Oc1ccc(N2CC[C@H](Oc3ccccn3)C2)c(CO)c1 [Compound 1-316],< 10,7.77,> 4,18.9,–,–,–,–,–
"COc1ccccc1Oc1ccc(N2CC[C@H](Oc3ccc(C)cn3)C2)c(CO)n1 [Compound 1-205, (S)-(6-(2-methoxyphenoxy)-3-(3-(5-methylpyridin-2-yloxy)pyrrolidin-1-yl)pyridin-2-yl)methanol]",> 1000,~3000,> 7.2,16,> 1000,~6000,–,–,–
"CCc1cc(C)ccc1-c1ccc(C2CCN(C(=O)c3ccc(Cl)cn3)C2)c(CO)c1 (stereo not shown) [Compound 2-66, (5-chloropyridin-2-yl)(3-(2′-ethyl-3-(hydroxymethyl)-4′-methylbiphenyl-4-yl)pyrrolidin-1-yl)methanone]",10 to 100,–,~1.9,–,–,–,16.5,24.9,–
"Cc1ccc(C(=O)c2ccc(N3CC[C@H](Oc4ncccc4Cl)C3)c(CO)c2)cc1 [Compound 1-277, (S)-(4-(3-(3-chloropyridin-2-yloxy)pyrrolidin-1-yl)-3-(hydroxymethyl)phenyl)(p-tolyl)methanone]",10 to 100,63,0.47,15.7,–,–,–,–,–
"OCCc1cc(C(O)c2ccccc2Cl)ccc1N1CC[C@H](Nc2ccc(F)cn2)C1 (stereo partly drawn) [Compound 1-390, 2-(5-((2-chlorophenyl)(hydroxy)methyl)-2-((S)-3-(5-fluoropyridin-2-ylamino)pyrrolidin-1-yl)phenyl)ethanol]",100 to 1000,219,> 13.6,7.23,–,–,–,–,–
"Oc1cc(-c2ccccc2Cl)ccc1N1CC[C@@H](Oc2ccc(C(F)(F)F)cn2)C1 [Compound 1-113, (R)-2′-chloro-4-(3-(5-(trifluoromethyl)pyridin-2-yloxy)pyrrolidin-1-yl)biphenyl-3-ol]",100 to 1000,~97.5,–,33.5,100 to 1000,109,–,–,BLQ
"O=C(CO)c1cc(-c2ccccc2)ccc1N1CC[C@H](Oc2ccc(C(F)(F)F)cn2)C1 [Compound 1-178, (S)-2-hydroxy-1-(4-(3-(5-(trifluoromethyl)pyridin-2-yloxy)pyrrolidin-1-yl)biphenyl-3-yl)ethanone]",–,–,~0.2,66.5,100 to 1000,146,–,–,–
OCc1cc(Oc2cccc(Cl)c2)ccc1N1CC[C@H](Oc2ccccn2)C1 [Compound 1-304],10 to 100,55.8,~1,17.5,–,–,–,–,–
"OCCc1cc(-c2ccccc2)ccc1N1CC[C@H](Oc2ccc(C(F)(F)F)cn2)C1 [Compound 1-142, (S)-2-(4-(3-(5-(trifluoromethyl)pyridin-2-yloxy)pyrrolidin-1-yl)biphenyl-3-yl)ethanol]",100 to 1000,275,–,65.2,–,–,–,–,BLQ
"COCc1ccccc1-c1ccc(N2CC[C@H](Oc3ccc(C(F)(F)F)cn3)C2)c(CO)c1 [Compound 1-160, (S)-(2′-(methoxymethyl)-4-(3-(5-(trifluoromethyl)pyridin-2-yloxy)pyrrolidin-1-yl)biphenyl-3-yl)methanol]",10 to 100,71.6,~0.4,19.1,100 to 1000,106,–,–,–
CC(C)c1ccccc1-c1ccc(C2CCN(C(=O)c3ccc(Cl)cn3)C2)c(CO)c1 (stereo not shown) [Compound 2-30],< 10,–,~3.7,–,–,–,2.68,13.9,–
COc1cnc(C(=O)N2CCC(c3ccc(-c4ccccc4C4CC4)cc3CO)C2)cn1 (stereo not shown) [Compound 2-107],10 to 100,–,9.25,–,–,–,31.5,25.7,–
CCc1ccccc1Oc1ccc(N2CC[C@H](Oc3ccccn3)C2)c(CO)c1 [Compound 1-275],10 to 100,24.8,~1,22.8,–,–,–,–,–
"CC(=O)c1ccccc1-c1ccc(N2CC[C@H](Oc3ccc(C(F)(F)F)cn3)C2)c(CO)c1 [Compound 1-157, (S)-1-(3′-(hydroxymethyl)-4′-(3-(5-(trifluoromethyl)pyridin-2-yloxy)pyrrolidin-1-yl)biphenyl-2-yl)ethanone]",100 to 1000,211,~1.8,17.5,–,–,–,–,–
"CCc1ccccc1-c1ccc(C2CCN(C(=O)c3ccc(C)cn3)C2)c(CO)c1 (stereo not shown) [Compound 2-50, (3-(2′-ethyl-3-(hydroxymethyl)biphenyl-4-yl)pyrrolidin-1-yl)(5-methylpyridin-2-yl) methanone]",10 to 100,–,~3.9,–,–,–,89.8,8.67,–
"CCc1ccccc1-c1ccc(C2CCN(C(=O)c3ccc(Cl)cn3)C2)c(CO)c1 (stereo not shown) [Compound 2-51, (5-chloropyridin-2-yl)(3-(2′-ethyl-3-(hydroxymethyl)biphenyl-4-yl)pyrrolidin-1-yl) methanone]",< 10,–,~5.3,–,–,–,7.37,14.4,–
"Cc1ccccc1C(O)c1ccc(N2CC[C@H](Oc3ncccc3Cl)C2)c(CO)c1 (stereo partly drawn) [Compound 1-247, (4-((S)-3-(3-chloropyridin-2-yloxy)pyrrolidin-1-yl)-3-(hydroxymethyl)phenyl)(o-tolyl)methanol]",100 to 1000,132,> 9,13.1,100 to 1000,202,–,–,–
"CCc1ccccc1Oc1ccc(N2CC[C@H](Nc3ncccc3Cl)C2)c(CO)c1 [Compound 1-380, (S)-(2-(3-(3-chloropyridin-2-ylamino)pyrrolidin-1-yl)-5-(2-ethylphenoxy)phenyl)methanol]",10 to 100,25.6,–,20.9,–,–,–,–,BLQ
"Cc1ccccc1C(=O)c1ccc(N2CC[C@H](Oc3ncccc3Cl)C2)c(CO)c1 [Compound 1-246, (S)-(4-(3-(3-chloropyridin-2-yloxy)pyrrolidin-1-yl)-3-(hydroxymethyl)phenyl)(o-tolyl)methanone]",100 to 1000,136,~1.87,7.36,100 to 1000,136,–,–,–
"Cc1ccccc1C(=O)c1ccc(N2CC[C@H](Oc3ncccc3F)C2)c(CO)c1 [Compound 1-243, (S)-(4-(3-(3-fluoropyridin-2-yloxy)pyrrolidin-1-yl)-3-(hydroxymethyl)phenyl)(o-tolyl)methanone]",100 to 1000,296,~7.34,6.26,–,–,–,–,–
"OCc1cc(Oc2ccccc2F)ccc1N1CC[C@H](Oc2ncccc2Cl)C1 [Compound 1-270, (S)-(2-(3-(3-chloropyridin-2-yloxy)pyrrolidin-1-yl)-5-(2-fluorophenoxy)phenyl)methanol]",< 10,9.39,1,24.3,< 10,7.44,–,–,–
CC(C)c1ccccc1Oc1ccc(N2CC[C@H](Oc3ccccn3)C2)c(CCO)c1 [Compound 1-317],10 to 100,20.8,–,12.1,–,–,–,–,BLQ

# Reference: patent US12435061B2 (priority 2020, dated 2025)
